Measurements reported in US20220104481A1, “CRYOPRESERVATION OF STEM CELLS” (TiGenix, S.A.U., priority 2019, published 2022).

System: ASCs
Experiment: MTS assay after post-thaw seeding of ASCs pretreated with compounds prior to freezing
Assay type: cell-based, human
Conditions: 24 hours pretreatment before freezing (LY294 10 μM, sc79 10 μM, Exendin-4 20 nM)
Description: ASCs from donor A were thawed by warming the vials in a 37° C. bath and diluting the freezing medium containing DMSO with fresh complete DMEM (DMEM/F-12 media—GlutaMAX™-I, Gibco, supplemented with 100 μg/mL penicillin/streptomycin and 10% FBS). Cells were centrifuged at 450 g for 6 minutes at room temperature to eliminate leftover DMSO and plated in T-175 flasks at 20.000 cells/cm^2 in complete DMEM.
A 600 mM stock of NAC (SIGMA) was prepared in Milli-Q water (Millipore). This stock was used for pre-treatment and post-treatment by adding directly 50 μL stock solution per well into 5 mL of medium, making a final concentration of 6 mM. For 2 mM, only 16.7 μL were added per well, and in the case of 12 mM, 100 μL of stock were added. DMSO was used as the vehicle for sc79 and LY294.
Following the pretreatment step, the medium was removed, the cells were washed with PBS and trypsinized using trypsin-EDTA 0.25% (ThermoFisher) for 8 minutes at 37° C. After trypsin inactivation with complete DMEM, cells were harvested and centrifuged prior to resuspension in freezing medium (FBS with 10% DMSO), and frozen into 500,000 or 1 million cells per vial and stored in liquid nitrogen for further use. Specifically, the cells were frozen at −80° C. for 24 hours in a Cool Cell® device (BioCision) and then transferred to a liquid nitrogen storage container. All experiments were performed in incubators and 37° C., 5% CO2.
[…] The CellTiter 96° Aqueous One Solution Cell Proliferation Assay is a colorimetric method for determining the number of viable cells. The CellTiter 96° Aqueous One Solution reagent contains a tetrazolium compound [3-(4,5-dimethylthiazol-2-yl)-5-(3-carboxymethoxyphenyl)-2-(4-sulfophenyl)-2H-tetrazolium, MTS] and an electron coupling reagent (phenazine ethosulfate; PES). The MTS tetrazolium compound is bioreduced by cells—presumably by NADPH or NADH produced by dehydrogenase enzymes in metabolically active cells—into a coloured formazan product that is soluble in tissue culture medium.
Briefly, 40 μL of the reagent was added to 200 μL of complete DMEM in each well and absorbance was measured after 2-3 hours at 490 nm using a […]. Each condition was measured in 6 technical repeats. The MTS assay results are presented as percentage of absorbance at 490 nm relative to the non-treated (NT) cells.

Question: How did the “effect of pre-treatment on post-thaw cell number” value (from here on “effect of pre-treatment”) turn out when `O=c1cc(N2CCOCC2)oc2c(-c3ccccc3)cccc12` [LY294] was run?
Answer: Its value is “did not show reproducible effects on cell number”.

Question: `CCOC(=O)C1=C(N)Oc2ccc(Cl)cc2C1C(C#N)C(=O)OCC` (stereo not shown) [sc79] was tested. Which “effect of pre-treatment” value did it give?
Answer: The value was “did not show reproducible effects on cell number”.

Question: Exendin-4 was tested. Which “effect of pre-treatment” value did it give?
Answer: Its value is “did not show reproducible effects on cell number”.

Question: “IL6: pre-treatment assessed in addition to NAC; no concentration given” was tested. Which “effect of pre-treatment” value did it give?
Answer: The value was “did not show reproducible effects on cell number”.
